One data set is filed under the species Rattus norvegicus. Put plainly: Effective concentration for half-maximal release of growth hormone determined in the rat pituitary cell assay, normalized against standard L692,429 (60 nM). The format is functional. Conditions: Pituitary gland cell.
Data set [1] in a line: Volume of distribution was determined in rat at 5.5 mg/kg, iv. It counts as ADME, organism-based. More on the design: dose 5.5 mg/kg, route intravenous. Conditions: in vivo, read-out: Vdss.
Data set [2] is described as follows: Clearance rate at 5.5 mg/kg, iv, in rat. The format is ADME, organism-based. More on the design: dose 5.5 mg/kg. Conditions: in vivo.
The nature of data set [3]: Half-life determined at 5.5 mg/kg, iv, in rat. It counts as ADME, organism-based. More on the design: dose 5.5 mg/kg. Conditions: in vivo.
The nature of data set [4]: Maximum plasma concentration following oral administration of 26.3 mg/kg in rats. It counts as ADME, organism-based. Conditions: rat. More on the design: dose 26.3 mg/kg, route oral.
A short description of data set [5]: Maximum plasma concentration following oral administration of 3.8 mg/kg in Beagle dog. It counts as ADME, organism-based, Canis lupus familiaris. More on the design: dose 3.8 mg/kg, route oral.
Data set [6] in a line: Bioavailability in dogs at 3.8 mg/kg oral dose. The format is ADME, organism-based, Canis lupus familiaris. The settings on record: dog, in vivo.
The nature of data set [7]: Clearance rate at 0.46 mg/kg, iv, in dogs. It counts as ADME, organism-based, Canis lupus familiaris. More on the design: dose 0.46 mg/kg. Conditions: dog, in vivo.
Data set [8] in a line: Half-life determined at 0.46 mg/kg, iv, in dogs. The settings on record: dog, in vivo. More on the design: dose 0.46 mg/kg. It counts as ADME, organism-based, Canis lupus familiaris.
The nature of data set [9]: Volume of distribution was determined in dogs at 0.46 mg/kg, iv. Conditions: dog, in vivo, read-out: Vdss. It counts as ADME, organism-based, Canis lupus familiaris. More on the design: dose 0.46 mg/kg, route intravenous.
Data set [10] in a line: Bioavailability in rats at 26.3 mg/kg oral dose. The format is ADME, organism-based. The settings on record: rat, in vivo.

Bounds are passed on as bounds.

The EC50 is the midpoint of the concentration-response curve. In the data set listed under Rattus norvegicus, `CC(C)(N)C(=O)N[C@H](Cc1c[nH]c2ccccc12)C(=O)N1CCC[C@@](Cc2ccccc2)(C(=O)O)C1` had a half-maximal effective concentration (EC50) of 190 nM.
Consider `CCNC(=O)[C@]1(Cc2ccccc2)CCCN(C(=O)[C@@H](Cc2c[nH]c3ccccc23)NC(=O)C(C)(C)N)C1`, for which the half-maximal effective concentration (EC50) in the data set filed under Rattus norvegicus worked out at 0.8 nM.
On the same count and under the same terms, the result for `CCOC(=O)[C@]1(Cc2ccccc2)CCCN(C(=O)[C@@H](CCCc2ccccc2)NC(=O)C(C)(C)N)C1` reads 8 nM.
In the data set listed under Rattus norvegicus, `CCOC(=O)[C@]1(Cc2ccccc2)CCN(C(=O)[C@@H](Cc2c[nH]c3ccccc23)NC(=O)C(C)(C)N)C1` came in with a half-maximal effective concentration (EC50) of over 50 nM.
The same measure, in the same setting: with `CCOC(=O)[C@@]1(Cc2ccccc2)CCCN(C(=O)[C@@H](Cc2c[nH]c3ccccc23)NC(=O)C(C)(C)N)C1` the figure was 22 nM.
For orientation: clearance means a measure of how efficiently the substance is removed, as volume per time. Low values mean a low capacity for elimination, high ones a high capacity for elimination. The term half-life denotes the time needed for the level to fall by half in the phase considered. What is called Cmax is the maximum level reached in the sampled fluid or tissue. As a reminder, the bioavailability is dose-corrected exposure relative to a reference, in per cent. Low readings indicate poor availability, high ones good availability. As for `CCOC(=O)[C@]1(Cc2ccccc2)CCCN(C(=O)[C@@H](Cc2c[nH]c3ccccc23)NC(=O)C(C)(C)N)C1`, the values for the Vd in data set [1] and in [9] were 2.7 L/kg and 1.3 L/kg, respectively. Also, the values for the clearance in [2] and in data set [7] were 206 mL/min/kg and 23 mL/min/kg, respectively. For the same compound, the half-life in data set [3] was 24 min; in data set [8], 72 min. Besides, the Cmax in data set [4] came to 182 ng/mL; in data set [5], 560 ng/mL. Moreover, the bioavailability amounted to 29% in data set [6] and 12.1% in [10].
With `CCOC(=O)[C@]1(Cc2ccccc2)CCCN(C(=O)[C@@H](COCc2ccccc2)NC(=O)C(C)(C)N)C1`, in the data set listed under Rattus norvegicus, the EC50 was 20 nM.
Turning to `CCOC(=O)[C@]1(Cc2ccccc2)CCCN(C(=O)[C@@H](Cc2c[nH]c3ccccc23)NC(=O)C(C)N)C1` (stereo partly drawn), in the data set listed under Rattus norvegicus, the concentration for a half-maximal effect (EC50) worked out at 6 nM.
On the same count and under the same terms, the result for `CCOC(=O)[C@]1(Cc2ccccc2)CCCCN(C(=O)[C@@H](Cc2c[nH]c3ccccc23)NC(=O)C(C)(C)N)C1` reads over 200 nM.

The record behind these values is ChEMBL document CHEMBL1131305, “1-[2(R)-(2-amino-2-methylpropionylamino)-3-(1H-indol-3-yl)propionyl]- 3-benzylpiperidine-3(S)-carboxylic acid ethyl ester (L-163,540): a potent, orally bioavailable, and short-duration growth hormone secretagogue” (J Med Chem, 1998).
